The source of these data is patent US6518262B1, “22R-hydroxycholesta-8, 14-diene derivatives for the inhibition of meiosis” (Akzo Nobel N.V., priority 1999, dated 2003).

This assay has as its system denuded oocytes (DO). The assay can be described thus: Oocyte assay, agonistic testing, denuded oocytes (DO assay). Particulars: compound 5 μM, hypoxanthine medium, 22 hours culture, control value in brackets. It counts as cell-based, mice (B6D2-F1, strain C57BL×DBA). The source says: Oocytes arrested in meiosis contain diffused chromosomes which are surrounded by an intact nuclear envelope known as the germinal vesicle (GV). Upon reinitiation of meiosis by the midcycle gonadotropin surge, the chromosomes recondense and the GV breaks down (GVBD). In vivo, the oocyte is exposed to hypoxanthine (HX), which maintains the oocyte arrested in the meiotic prophase. This meiotic arrest can be mimicked in vitro by addition of hypoxanthine to the culture medium. The agonistic activity of meiosis activating substances is measured as the ability to overcome the hypoxanthine maintained meiotic arrest in denuded oocytes (DO) or cumulus enclosed oocytes (CEO), i.e. as the ability to induce meiotic resumption in vitro.
Ovaries are obtained from immature female mice (B6D2-F1, strain C57BL×DBA). At the age of 19, 20 or 21 days the mice are injected subcutaneously with a single dose of 20 IU follicle stimulating hormone (Humegon, Organon, The Netherlands) in saline.
Forty-eight hours after follicle stimulating hormone injection mice are killed by cervical dislocation. The ovaries are removed, freed of extraneous tissue and placed in a multidish containing 0.5 ml preparation medium at 37° C. L-15 Leibovitz medium (Gibco, pH 7.3±0.1) supplemented with bovine serum albumin (3 mg·ml^−1), L-glutamine (0.23 mM), sodium pyruvate (2 mM) and hypoxanthine (4 mM) is used as preparation medium. The antral follicles of the ovaries are punctured under a dissecting microscope using two 27-gauge needles attached to two 1 ml syringes. Cumulus enclosed oocytes (CEO) of uniform size are selected with a mouth-controlled pipette and rinsed in 0.5 ml fresh preparation medium. About 20 CEO are obtained from one ovary.
Oocytes freed from cumulus cells, i.e. denuded oocytes (DO), are obtained by gently flushing CEO through a fine-bore mouth-controlled pipette. DO were collected in fresh MEM alpha medium, containing bovine serum albumin (3 mg·ml^−1), L-glutamine (0.23 mM), sodium pyruvate (2 mM) and hypoxanthine (4 mM), and washed twice before transfer to the test medium.
The oocyte assay is performed in 3 blocks, each block represents the ovaries of one mouse (randomized block design). […] At t=0 the number of oocytes with intact germinal vesicles (GV) or germinal vesicle break-down (GVBD) is counted under an inverted microscope with differential interference contrast equipment. […] At the end of the culture period the number of oocytes with GV or GVBD per group is counted. For statistical analysis the percentage germinal vesicle breakdown is calculated for each group in one block. These percentages are subjected to arcsin transformation, and differences between control and test compounds are analyzed by an ANOVA test for a randomized block design. […]

SMILES strings stand for the structures.

`CC(C)CC[C@@H](O)[C@@H](C)[C@H]1CC=C2C3=C(CC[C@@]21C)[C@@]1(C)CC[C@H](O)C(C)(C)[C@@H]1CC3` [Example 1, (3β,5α,20S,22R)-4,4-Dimethylcholesta-8,14-diene-3,22-diol]: the “% GVBD DO assay exp.” value is reported as 0(0) %. In the case of `CC(C)=CC[C@@H](O)[C@@H](C)[C@H]1CC=C2C3=C(CC[C@@]21C)[C@@]1(C)CC[C@H](O)C(C)(C)[C@@H]1CC3` [Example 2, (3β,5α,20S,22R)-4,4-Dimethylcholesta-8,14,24-triene-3,22-diol] it was 3(3) %.
